Among the data in a melting point compilation (Tetko et al.; mined from patent text by program, amines drawn as free bases though some values may be those of a salt) are melting point values, retold here.

Molecules are shown by their SMILES.

The molecule `NS(=O)(=O)c1cc(F)c(C(F)(F)F)cc1NC(=O)c1ccccc1` returned a melting point of 223 °C. The figure for `CCC(CC)NCc1cnc2c(C)c(NC(=O)c3ccc(OC[C@@H]4CCCO4)cc3)ccc2c1` is 113 to 115 °C.

`O=C1CCC(N2Cc3c(OCc4ccc(CNC5CCOCC5)cc4)cccc3C2=O)C(=O)N1` (configuration not stated): the melting point was 231 to 233 °C.

`CCCCc1nc(CC(=O)O)c(-c2ccco2)o1` yielded a melting point of 62 to 63 °C. The figure for `Cc1nc(-n2cc(-c3ccc(F)cc3)nn2)sc1C(=O)NCc1ccccc1` is 203 to 205 °C; for `CCN1CCN(c2nc(C)c(C(=O)NCc3cccnc3)s2)C1=O` it is 163 to 164 °C.

The molecule `CC1(C)CC(CCCCNc2nc(Cl)nc(NCCCCC3CC(C)(C)NC(C)(C)C3)n2)CC(C)(C)N1` gave a melting point of 40 to 42 °C. The figure for `CCc1cn(C2CC(N=[N+]=[N-])C(CO)O2)c(=O)[nH]c1=O` (configuration not stated) is 118 to 120 °C; for `CN(C)Cc1cccc(Cc2cnc(N[N+](=O)[O-])[nH]c2=O)c1` it is 232 to 235 °C. In the case of `CNC(=O)c1cccc(NC(=O)Cc2cccc(O)c2)c1` it was 163 °C; in that of `Nc1nnc(-c2ccnc3[nH]c(CCc4ccccc4)cc23)o1`, 234 to 235 °C; in that of `CCCc1ccccc1OS(=O)(=O)c1ccc(N2CCN(C)C2=O)cc1`, 103 to 105 °C. `CS(=O)(=O)c1ccc(-c2cc(CO[N+](=O)[O-])nn2CC2CCCCC2)cc1` registered a melting point of 98 to 99 °C. Consider `Cc1c(N)c(C(C)C)cc(Cc2cc(C(C)C)c(N)c(C)c2Cl)c1Cl`, for which the melting point fell in the range of 118 to 120 °C. In the case of `Fc1cccc(F)c1-c1nc(C(F)(F)F)n(-c2ccccc2C(F)(F)F)n1` it was 90 °C; in that of `COc1cc2nc(N3CCc4cc(OCc5ccccc5)c(OC)cc4C3)cc(N)c2cc1OC`, 181 to 182 °C. For `O=C1c2ccccc2C(=O)N1OC1C=CCCC1` (configuration not stated), the melting point stood at 87 °C. As for `C=CCN(c1ccccc1C=C(SC)S(C)=O)c1c(Cl)cccc1Cl` (configuration not stated), the melting point lay within 104 to 107 °C. In the case of `O=C(O)c1c(Cl)cc(Cl)nc1Cl` it was 138 to 141 °C; in that of `Fc1ccc(-c2cc(NCc3cccc(NCc4ccccc4)n3)n[nH]2)cc1`, 117 to 118 °C; in that of `CCCc1nn(-c2ccc(C(F)(F)F)cn2)cc1CCCCO`, 80 to 81 °C.

In turn, `COc1ccc(S(=O)(=O)N(Cc2ccccc2)c2c(C(=O)O)cnc3c2c(C)nn3C)cc1` displayed a melting point of 165 to 167 °C. The figure for `CC(C)C(F)(C(=O)O)c1ccc(Cl)cc1` (configuration not stated) is 120 °C.

Turning to `Nc1cc(-c2ccccc2)cc2ccccc12`, the melting point came to 103 °C. The figure for `N#Cc1cc(Cl)c(F)cc1F` is 48 to 50 °C. The figure for `CC(C)n1nc(-c2[nH]c(=O)c(N)nc2-c2ccccc2)ccc1=O` is above 250 °C; for `O=C(Cc1ccc(Cl)cc1)N1CCc2cc(S(=O)(=O)N3CCN(c4cccc(Cl)c4)CC3)ccc21` it is 186 to 187 °C; for `O=C1NC(=O)C2(N1)C(=O)N(Cc1ccc(Cl)c(Cl)c1)c1ccc(Cl)cc12` (configuration not stated) it is 257 to 259 °C. The molecule `O=C(O)CCc1cnoc1-c1ccc(F)cc1` came in with a melting point of 126 to 127 °C.

Molecule `CCOC(=O)c1ccc(C#CC2(O)CN3CCC2CC3)cc1` (configuration not stated) gave a melting point of 176 to 177 °C. As for `Cc1ccc(-c2ccccc2-c2c(OC(C)C)c(=O)c2=O)cc1`, the melting point was 126 to 130 °C.

Take `CS(=O)(=O)[C@H]1CN(Cc2ccccc2)C[C@@H]1S(C)(=O)=O`: the melting point came to 56.5 °C. In the case of `CC(=O)Nc1ccc([N+](=O)[O-])cc1OC[Si](C)(C)C`, the melting point stood at 128 °C. As for `OCc1csc(=S)n1-c1ccc(F)c(F)c1F`, the melting point was in the range of 113 to 116 °C. In the case of `CCc1ccnc(C(=O)c2[nH]c3ccc(OC(F)(F)F)cc3c2CC(=O)O)c1` it was 223 °C. In turn, `CNC(=O)c1cccc(NC(=O)Cc2cccc(Br)c2)c1` showed a melting point of 176 to 178 °C. The figure for `CC(=O)Nc1nc(C=O)c(Cc2ccccc2)s1` is 191 to 192 °C; for `CC(=O)Nc1c(C)cc(OC(C)=O)c(C)c1C` it is 174 to 175 °C; for `CCc1c[nH]c(=O)c(N)c1Sc1cc(C)cc(C)c1` it is 208 to 209 °C. The figure for `CC(C)C(NC(=O)Cn1cccc(NC(=O)Oc2ccc(Cl)cc2)c1=O)C(=O)C(F)(F)F` (configuration not stated) is 137 to 139 °C; for `CCCS(=O)(=O)NCC1CC2C=CC1C2` (configuration not stated) it is 51 to 52 °C; for `O=C1OCCN1CCO` it is 32 to 33 °C.

For `CC(=O)n1ncc2c(O)cccc21`, the melting point was 140 to 142 °C.

Regarding `CC(C)(C)OC(=O)CNNC(=O)OCc1ccccc1`, the melting point was in the range of 61 to 62 °C.

With `CCOC(=O)CCc1ccc(NC(C)=O)cc1`, the melting point is 52 to 53 °C. In the case of `COc1ccc(COC(=O)n2c(SCc3ccc(C)cn3)nc3cscc32)cc1` it was 120 to 121 °C.

Molecule `CCS(=O)(=O)c1ccc(-n2cncc2-c2ccc([N+](=O)[O-])cc2)cc1` came in with a melting point of 190 to 194 °C. As for `COc1ccc(Cc2cc(C(C)(C)C)cc(C(C)(C)C)c2O)cc1`, the melting point fell in the range of 84 to 85 °C. The figure for `CC1(Nc2ccccc2)OC(=O)C=C1c1ccccc1` (configuration not stated) is 158 to 160 °C; for `CSC1NC(=O)N(c2cccs2)C(=O)N1` it is 220 to 222 °C; for `CCNC(=O)OCCOc1ccc(Oc2ccc(F)cc2)cc1` it is 60 to 62 °C.

The molecule `O=C(c1ccccc1)c1cnn2c(-c3cccc(NC(=O)C4CC4)c3)ccnc12` displayed a melting point of 210 to 212 °C. As for `COc1cccc(Cl)c1CC(=O)O`, the melting point was 164 to 165 °C. In turn, `CCCCC1(CC)CS(=O)(=O)c2ccccc2N(c2ccccc2)C1=O` (configuration not stated) came in with a melting point of 57.6 °C.

`COC(=O)c1cc2c([nH]c3ccccc32)s1`: the melting point lay in the range of 200 to 201 °C. The figure for `CC(=O)OC(C)OC(=O)[C@H](Cc1ccc(-c2c(C)n(C)c(=O)n(C)c2=O)cc1)NC(=O)c1c(C)cccc1Cl` (some centres not stated) is 84 to 88 °C; for `O=C(c1sc2ccc(C(F)(F)F)cc2c1O)N(C=Cc1ccccc1)C=Cc1ccccc1` it is 165 to 167 °C. `NC(=O)c1ccc(NCc2cccc([N+](=O)[O-])c2)cc1`: the melting point lay within 178 to 180 °C. Consider `CCOc1c(OC)cc(N)c2ncccc12`, for which the melting point lay in the range of 129 to 131 °C.

With `CC(C)(C)OC(=O)N1CCC(c2ccc3oc(-c4ccc(C(F)(F)F)cc4)nc3c2)CC1`, the melting point was in the range of 161 to 164 °C. Regarding `CCC(CC)N1CSc2cnc(N)nc21`, the melting point was above 232 °C. The molecule `CC#Cc1ccc2[nH]c(C(=O)OCC)cc2c1` had a melting point of 166 to 167 °C. With `NC(=O)N1CC(Oc2ccccc2)C1`, the melting point was 179 to 186 °C. In the case of `CON=C(C(=O)O)c1cc2sccc2s1` it was 116 to 117 °C; in that of `O=C(O)C1=CCCN(Cc2ccc(Cl)c(Cl)c2)C1`, 240 to 245 °C; in that of `COC(=O)C1(C(=O)OC)Cc2cc(Br)ccc2N1`, 113 to 155 °C. The figure for `Cc1ccc(CSc2c(O)cc(-c3ccccc3)oc2=O)cc1` is 164 to 165 °C; for `CC(C)(C)OC(=O)COC1CCN(C(=O)[C@]2(C)CCCN2C(=O)c2ccc(C#N)cc2)CC1` it is 180 to 182 °C; for `Cc1nc(Cl)c2c(n1)N(C)C(=O)CO2` it is 142 to 143 °C. In turn, `OCCc1nccn1CCCCc1ccc(OCc2coc(/C=C/c3ccc(F)cc3F)n2)cc1` gave a melting point of 93 to 95 °C.

Turning to `COc1ccc2c3c([nH]c2c1)C(=O)C(CC1CCN(C(=O)OC(C)(C)C)CC1)C3` (configuration not stated), the melting point fell in the range of 192 to 193 °C. The figure for `Cc1ccc2[nH]c3c(cc(-c4cccc(C(=O)N5CCOCC5)c4)c(=O)n3C)c2c1` is 296 to 298 °C; for `O=c1c2ccccc2[nH]c2c(OCCCCBr)cccc12` it is 180 to 181 °C. Take `C/C(=C\c1ccc(OC(C)C)cc1Oc1ncc(C(F)(F)F)cc1Cl)C(=O)NS(=O)(=O)NCCOC(C)C`: the melting point came out at 138 °C. In the case of `CC(=O)N[C@@H]1C(O)O[C@H](COC(C)=O)[C@@H](O)[C@@H]1O` (some centres not stated) it was 47 to 51 °C.

Take `O=C(O)C1CN(Cc2ccc(OCc3ccc(Cl)c(Cl)c3)cc2)C1`: the melting point worked out at 166 °C. `CCNn1cc(C(=O)O)c(=O)c2ccc(C)nc21` registered a melting point of 166 to 169 °C.

`COc1ccc(-c2nc(NC(=O)c3cccnc3)sc2-c2ccnc(NC(=O)c3cccnc3)c2)cc1` gave a melting point of 229 to 232 °C. The figure for `Cc1[nH]c(CN(C)C)c(C)c1-c1ccnc(Nc2ccc(F)cc2)n1` is 88.4 to 91.6 °C.

As to `Cc1ccc(Nc2nc(-c3c(-c4ccccc4)noc3C)cs2)nc1`, the melting point is 267 to 269 °C.

For the molecule `NC(c1ccccc1CNc1ccnc2cc(Cl)ccc12)c1ccnc2cc(Cl)ccc12` (configuration not stated), the melting point is above 250 °C.

In turn, `CCn1ncnc1COc1nn2c(-c3ccccc3F)nncc2c1-c1ccccc1` gave a melting point of 171 to 173 °C. Regarding `COc1cc(-c2ncn(C3CC3)c2-c2ccc(C(F)(F)F)cc2)cc(OC)c1OC`, the melting point was 125 to 130 °C. Turning to `CCC1(CCO)C(=O)N2CC=CC(C(=O)OC)N2C1=O` (configuration not stated), the melting point fell in the range of 87 to 92 °C. The figure for `CCN(CC)CCOc1ccc(Nc2ncc3c(n2)N(C)C(=O)N(Cc2ccc(OC)cc2)C3)cc1` is 112 °C. In the case of `CCCC1CCCCCc2c1oc(=O)c(C(c1ccccc1)C1CC1)c2O` (configuration not stated) it was 78 to 84 °C; in that of `CCN(CC)c1ccc(C(=NCCO[N+](=O)[O-])NC#N)cn1`, 119 °C; in that of `Cc1sc2c(c1CCN1CCC(c3noc4cc(F)ccc34)CC1)CCN(C)C2`, 100 to 103 °C. In the case of `CC1NC(=O)NN=C1c1ccc(NC(=O)CN2CCOCC2)cc1` (configuration not stated) it was 244 to 247 °C. As for `O=C(O)C1CNc2ccccc2CN1` (configuration not stated), the melting point lay within 183 to 185 °C. `CC1(C)CN=C2N(C1)c1ccc(C#N)cc1C21OCCCO1`: the melting point was 178 to 184 °C. With `Cc1ccc(Sc2cncc3sc(C=NOCC(N)=O)cc23)cc1`, the melting point lay within 152 to 156 °C.
